From paper PMC5843817, “Preclinical validations of [^18F]FPyPEGCBT-c(RGDfK): a ^18F-labelled RGD peptide prepared by ligation of 2-cyanobenzothiazole and 1,2-aminothiol to image angiogenesis” (EJNMMI Radiopharmacy and Chemistry, 2016)

Columns and labels:
[1] = system: αVβ3, αVβ5 and α5β1 integrins on SKOV-3 cancer cells; experiment: [^125I]echistatin displacement cell binding assay, SKOV-3; set-up: species or system human; settings: SKOV-3 cells; displacement of [^125I]echistatin; 1 h, 37 °C
Protocol: (§1) In vitro integrin-binding of FPyPEGCBT-c(RGDfK) was evaluated using a standard displacement assay of [^125I]echistatin. U-87 MG and SKOV-3 cells were seeded in 96-well plates 24 h prior to the experiment (U-87 MG, 6 × 10^4 cells per well; SKOV-3, 3 × 10^4 cells per well). On the day of the experiment, the cells were washed twice with binding buffer (20 mM Tris pH 7.4, 150 mM NaCl, 2 mM CaCl2, 1 mM MgCl2, 1 mM MnCl2, 0.1 % BSA), then co-incubated for 1 h at 37 °C in binding buffer with 370 Bq/well [^125I]echistatin (Perkin Elmer, Schwerzenbach, Switzerland) and a concentration range (10^−9 to 10^−4 M) of FPyPEGCBT-c(RGDfK) or c(RGDfV) (PeptaNova, Sandhausen, Germany) as a reference peptide. Cells were then washed three times with binding buffer and lysed in 1 M NaOH. The cell-associated radioactivity was measured in a Wizard^2 2470 γ-counter (Perkin Elmer). The IC50 (Inhibitory Concentration of 50 %) values were calculated by fitting the data by nonlinear regression using GraphPad Prism (GraphPad software, La Jolla, CA, USA).
(§2) Fig. 2 Displacement of [^125I]echistatin by FPyPEGCBT-c(RGDfK). U-87 MG and SKOV-3 cancer cells were co-incubated for 1 h in 96-well plates with 370 Bq/well [^125I]echistatin and a concentration range (10^−9 to 10^−4 M) of FPyPEGCBT-c(RGDfK) or c(RGDfV). After lysis, the cell-associated radioactivity was measured in a γ-counter. […]

[2] = system: αVβ3, αVβ5 and α5β1 integrins on U-87 MG cancer cells; experiment: [^125I]echistatin displacement cell binding assay, U-87 MG; set-up: species or system human; settings: U-87 MG cells; displacement of [^125I]echistatin; 1 h, 37 °C
Protocol: as §1, §2

c(RGDfV)
IC50 [1]: 0.259 ± 0.002 µM | IC50 [2]: 0.6 µM
